target: human full length PIK3CA H1047R mutant (p110α/p85α complex) (Homo sapiens (Human), UniProt P42336, H1047R); experiment: PI3K-Alpha kinase (PIK3CA) activity, H1047R mutant, Transcreener ADP2 FI assay; details: PI3K-α (PIK3CA) H1047R mutant, biochemical
Experimental: (§1) PI3K-Alpha kinase (PIK3CA) activity, wild-type and H1047R mutant and determining IC50 values for inhibitors
(§2) Recombinant, catalytically active human full length PIK3KA Wild-type and H1047R mutant were purchased as 1:1 complex of N-terminal 6×his tagged p110<(catalytic) and untagged p85<(regulatory subunit) from EMD Millipore Sigma (cat. no. 14-602M and 14-792M, respectively). The enzyme stocks were diluted to 5× stocks in buffer (20 mM HEPES pH 7.4, 100 mM NaCl, 0.5 mM EGTA, 0.01% triton-x-100) just before use. PIP2diC8 (Avanti Polar Lipids Inc., cat. no. 850185) or phosphoinositol-4,5-bisphosphate with phosphoserine (PIP2:PS) membrane (Thermo Fisher Scientific, cat. no. PV5100) was used as lipid substrates. PIP2diC8 lyophilized powder and PIP2:PS (1:19) membrane stock (1 mM in PIP2) were separately dissolved in milliQ water to a concentration of 250 uM and stored in −20° C. 10 mM stocks of compounds were serially diluted (3×) in neat DMSO and stored in a dessicator at room temperature. 5× compound stocks in 25% DMSO were prepared fresh from neat DMSO stocks. Wild-type (WT) and H1047R mutant protein, along with buffer components (except ATP), were incubated with or without compound at 27° C. for 1h. After incubation, the reaction was initiated by the addition of 5 uL of 125 uM ATP. A typical assay mixture (25 uL) comprised 40 mM HEPES buffer, pH 7.4, 25 mM MgCl2, 0.01% v/v triton-X-100, 5% v/v DMSO, 20 mM NaCl, 1-5 nM wt or H1047R, 25 uM ATP, and 50 uM PTP2diC8 or PTP2 in membrane. The reaction was allowed to proceed until about […] (2.5 uM ADP) after which time, 10 uL of reaction mixture was quenched with 25 uL of transcreener reagent (Transcreener ADP2 FI assay kit, BellBrook labs, Cat. No. 3013). The contents were incubated at rt for 1h and fluorescence was measured using a plate reader (Paradigm, Molecular Devices). The same assay was also run at pH 6.0 or 6.4 using MOPS buffer (Fisher BioReagents, CAS 1132-61-2). A calibration curve was generated under identical buffer conditions with varying ADP amounts. Using that, the observed fluorescence was converted to uM ADP. A plot between [ADP] and log[I] yielded the dose-response curves that enabled the calculation of IC50s.

Sequence of human full length PIK3CA H1047R mutant (p110α/p85α complex) (P42336 whole entry H1047R): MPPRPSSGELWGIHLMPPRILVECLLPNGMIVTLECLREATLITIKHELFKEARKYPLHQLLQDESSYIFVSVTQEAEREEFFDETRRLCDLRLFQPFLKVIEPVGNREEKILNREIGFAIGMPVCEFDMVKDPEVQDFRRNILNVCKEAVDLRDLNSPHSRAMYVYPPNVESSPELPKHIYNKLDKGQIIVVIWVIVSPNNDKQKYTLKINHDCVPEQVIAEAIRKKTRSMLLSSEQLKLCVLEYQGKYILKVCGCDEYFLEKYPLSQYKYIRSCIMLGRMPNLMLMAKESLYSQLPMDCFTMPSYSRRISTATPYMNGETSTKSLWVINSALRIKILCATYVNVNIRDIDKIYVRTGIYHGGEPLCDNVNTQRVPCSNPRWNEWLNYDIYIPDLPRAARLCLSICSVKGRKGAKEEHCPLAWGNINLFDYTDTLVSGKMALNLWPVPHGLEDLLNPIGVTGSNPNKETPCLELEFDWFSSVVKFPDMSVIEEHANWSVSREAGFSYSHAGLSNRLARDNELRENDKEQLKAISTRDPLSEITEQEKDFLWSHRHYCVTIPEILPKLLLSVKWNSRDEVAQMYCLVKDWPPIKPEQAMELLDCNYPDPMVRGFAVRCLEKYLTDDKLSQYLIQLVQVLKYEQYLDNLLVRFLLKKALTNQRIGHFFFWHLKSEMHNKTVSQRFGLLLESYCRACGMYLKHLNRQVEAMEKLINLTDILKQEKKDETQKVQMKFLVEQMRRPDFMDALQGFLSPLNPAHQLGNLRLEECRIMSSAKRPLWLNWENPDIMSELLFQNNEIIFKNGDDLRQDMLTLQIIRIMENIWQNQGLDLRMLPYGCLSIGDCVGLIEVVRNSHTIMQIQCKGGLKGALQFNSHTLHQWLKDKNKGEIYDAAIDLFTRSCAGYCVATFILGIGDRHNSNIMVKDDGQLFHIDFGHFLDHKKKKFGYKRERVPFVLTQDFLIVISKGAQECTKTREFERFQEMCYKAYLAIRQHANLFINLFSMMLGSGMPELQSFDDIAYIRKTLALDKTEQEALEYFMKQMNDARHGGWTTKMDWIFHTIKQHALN
Sequence of human full length PIK3CA H1047R mutant (p110α/p85α complex) (P27986 whole entry partner): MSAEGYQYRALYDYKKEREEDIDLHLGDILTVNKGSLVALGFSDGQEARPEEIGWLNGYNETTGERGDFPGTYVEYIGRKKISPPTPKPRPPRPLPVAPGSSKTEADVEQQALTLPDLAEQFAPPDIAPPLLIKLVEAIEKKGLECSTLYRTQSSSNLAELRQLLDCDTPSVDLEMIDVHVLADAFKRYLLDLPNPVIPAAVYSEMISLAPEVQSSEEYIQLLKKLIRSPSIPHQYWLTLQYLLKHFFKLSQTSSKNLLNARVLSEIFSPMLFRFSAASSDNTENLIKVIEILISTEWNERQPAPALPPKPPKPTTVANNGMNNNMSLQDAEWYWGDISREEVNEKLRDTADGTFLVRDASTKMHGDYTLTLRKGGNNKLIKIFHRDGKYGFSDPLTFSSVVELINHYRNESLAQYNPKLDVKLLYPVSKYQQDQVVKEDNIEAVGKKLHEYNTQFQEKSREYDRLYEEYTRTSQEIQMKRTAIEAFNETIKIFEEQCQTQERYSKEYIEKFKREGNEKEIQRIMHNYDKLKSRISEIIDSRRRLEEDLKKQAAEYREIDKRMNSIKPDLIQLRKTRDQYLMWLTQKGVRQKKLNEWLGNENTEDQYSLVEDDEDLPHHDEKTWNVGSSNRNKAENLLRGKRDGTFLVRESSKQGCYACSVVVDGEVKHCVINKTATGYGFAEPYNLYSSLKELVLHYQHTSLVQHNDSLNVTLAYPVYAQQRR

Q: Which IC50 does the source give for `Cc1cc(C(C)Nc2ccccc2C(=O)O)c2oc(N3CCC(C)(C)CC3)c(C3CC3)c(=O)c2c1` (single isomer, unassigned) [Example 51, 2-[1-[3-Cyclopropyl-2-(4,4-dimethyl-1-piperidyl)-6-methyl-4-oxo-chromen-8-yl]ethyalmino]benzoic acid] here?
A: The IC50 was < 500 nM.

Q: How did the IC50 turn out when `Cc1cc(C(C)Nc2ccsc2C(=O)O)c2oc(N3CCC(C)(C)CC3)cc(=O)c2c1` (stereo not drawn) [Example 39, 3-[1-[2-(4,4-Dimethyl-1-piperidyl)-6-methyl-4-oxo-chromen-8-yl]ethylamino]thiophene-2-carboxylic acid] was run?
A: Its IC50 is 1000 to 5000 nM.

Q: With `Cc1cc(C(C)Nc2ccccc2C(=O)O)c2oc(N3CCCC4(CNC(=O)C4)C3)cc(=O)c2c1` (stereo not drawn) [Example 61, 2-[1-[6-Methyl-4-oxo-2-(3-oxo-2,7-diazaspiro[4.5]decan-7-yl)chromen-8-yl]ethylamino]benzoic acid] as the molecule, how does the IC50 read?
A: The IC50 was 1000 to 5000 nM.

Q: With `Cc1cc(C(C)Nc2ccccc2C(=O)O)c2oc(N3CC(N(C)C)C3)cc(=O)c2c1` (stereo not drawn) [Example 68, 2-[1-[2-[3-(Dimethylamino)azetidin-1-yl]-6-methyl-4-oxo-chromen-8-yl]ethylamino]benzoic acid] as the molecule, how does the IC50 read?
A: The IC50 was 1000 to 5000 nM.

Q: How did the IC50 turn out when `Cc1cc(C(C)Nc2ccccc2C(=O)O)c2oc(N3CC4CCC(C3)O4)cc(=O)c2c1` (stereo not drawn) [Example 82, 2-[1-[6-Methyl-2-(8-oxa-3-azabicyclo[3.2.1]octan-3-yl)-4-oxo-chromen-8-yl]ethylamino]benzoic acid] was run?
A: The IC50 was 1000 to 5000 nM.

Q: Which IC50 does the source give for `Cc1cc(C(C)Nc2ccccc2C(=O)O)c2oc(N3CCS(=O)(=O)CC3)cc(=O)c2c1` (stereo not drawn) [Example 117, 2-[1-[2-(1,1-Dioxo-1,4-thiazinan-4-yl)-6-methyl-4-oxo-chromen-8-yl]ethylamino]benzoic acid] here?
A: The IC50 was 1000 to 5000 nM.

Q: Which IC50 does the source give for `Cc1cc(C(C)Nc2ccccc2C(=O)O)c2oc(N3CCn4cnnc4C3)cc(=O)c2c1` (stereo not drawn) [Example 163, 2-[1-[2-(6,8-Dihydro-5H-[1,2,4]triazolo[4,3-a]pyrazin-7-yl)-6-methyl-4-oxo-chromen-8-yl]ethylamino]benzoic acid] here?
A: The IC50 was 1000 to 5000 nM.

Q: Which IC50 does the source give for `Cc1cc(C(C)Nc2ccccc2C(=O)O)c2oc(NC34CC5CC(CC(CO)(C5)C3)C4)cc(=O)c2c1` (stereo not drawn) [Example 169] here?
A: Its IC50 is 1000 to 5000 nM.

Q: Which IC50 does the source give for `COc1ccc(NC(C)c2cc(C)cc3c(=O)cc(N4Cc5ccccc5C4)oc23)c(C(=O)O)n1` (stereo not drawn) [Example 237, 3-[1-(2-Isoindolin-2-yl-6-methyl-4-oxo-chromen-8-yl)ethylamino]-6-methoxy-pyridine-2-carboxylic acid] here?
A: Its IC50 is 5000 to 10000 nM.

Q: Which IC50 does the source give for `Cc1cc(C(C)Nc2cccc(F)c2C(=O)O)c2oc(N3Cc4ccc(F)cc4C3)cc(=O)c2c1` (stereo not drawn) [Example 238, 2-Fluoro-6-[1-[2-(5-fluoroisoindolin-2-yl)-6-methyl-4-oxo-chromen-8-yl]ethylamino]benzoic acid] here?
A: Its IC50 is 1000 to 5000 nM.

Q: With `CNC(=O)C1CCN(c2cc(=O)c3cc(C)cc(C(C)Nc4ccccc4C(=O)O)c3o2)CC1` (stereo not drawn) [Example 371, 2-[1-[6-Methyl-2-[4-(methylcarbamoyl)-1-piperidyl]-4-oxo-chromen-8-yl]ethylamino]benzoic acid] as the molecule, how does the IC50 read?
A: Its IC50 is 1000 to 5000 nM.

Q: How did the IC50 turn out when `COC1CCN(c2cc(=O)c3cc(C)cc(C(C)Nc4ccccc4C(=O)O)c3o2)CC1` (stereo not drawn) [Example 373, 2-[1-[2-(4-Methoxy-1-piperidyl)-6-methyl-4-oxo-chromen-8-yl]ethylamino]benzoic acid] was run?
A: Its IC50 is 500 to 1000 nM.

target: human full length PIK3CA Wild-type (p110α/p85α complex) (Homo sapiens (Human), UniProt P42336); experiment: PI3K-Alpha kinase (PIK3CA) activity, wild-type, Transcreener ADP2 FI assay; details: PI3K-α (PIK3CA) wild-type, biochemical
Sequence (P42336 whole entry): as the sequence (P42336 whole entry H1047R) above, with R1047H counted along it
Sequence (P27986 whole entry partner): as the sequence (P27986 whole entry partner) above
Experimental: as §1, §2

Q: With `Cc1cc(C(C)Nc2ccccc2C(=O)O)c2oc(N3CCC(C)(C)CC3)c(C3CC3)c(=O)c2c1` (single isomer, unassigned) [Example 51, 2-[1-[3-Cyclopropyl-2-(4,4-dimethyl-1-piperidyl)-6-methyl-4-oxo-chromen-8-yl]ethyalmino]benzoic acid] as the molecule, how does the IC50 read?
A: The IC50 was 1000 to 5000 nM.

Q: How did the IC50 turn out when `CCc1c(N2CCC(C)(C)CC2)oc2c(C(C)Nc3ccccc3C(=O)O)cc(C)cc2c1=O` (stereo not drawn) [Example 55, 2-[1-[2-(4,4-dimethyl-1-piperidyl)-3-ethyl-6-methyl-4-oxo-chromen-8-yl]ethylamino]benzoic acid] was run?
A: The IC50 was 1000 to 5000 nM.

Q: How did the IC50 turn out when `Cc1cc(C(C)Nc2ccccc2C(=O)O)c2oc(N3CCCC(C)(C)C3)cc(=O)c2c1` (stereo not drawn) [Example 65, 2-[1-[2-(3,3-Dimethyl-1-piperidyl)-6-methyl-4-oxo-chromen-8-yl]ethylamino]benzoic acid] was run?
A: The IC50 was 5000 to 10000 nM.

Q: `Cc1cc(C(C)Nc2ccccc2C(=O)O)c2oc(N3CC4(CCCCC4)C3)cc(=O)c2c1` (stereo not drawn) [Example 88, 2-[1-[2-(2-Azaspiro[3.5]nonan-2-yl)-6-methyl-4-oxo-chromen-8-yl]ethylamino]benzoic acid] was tested. Which IC50 did it give?
A: Its IC50 is 5000 to 10000 nM.

Q: Which IC50 does the source give for `Cc1cc(C(C)Nc2ccccc2C(=O)O)c2oc(N3Cc4ccc(F)cc4C3)cc(=O)c2c1` (stereo not drawn) [Example 105, 2-[1-[2-(5-Fluoroisoindolin-2-yl)-6-methyl-4-oxo-chromen-8-yl]ethylamino]benzoic acid] here?
A: Its IC50 is 5000 to 10000 nM.

Q: `Cc1cc(C(C)Nc2ccccc2C(=O)O)c2oc(N3CCn4cccc4C3)cc(=O)c2c1` (stereo not drawn) [Example 171, 2-[1-[2-(3,4-Dihydro-1H-pyrrolo[1,2-a]pyrazin-2-yl)-6-methyl-4-oxo-chromen-8-yl]ethylamino]benzoic acid] was tested. Which IC50 did it give?
A: Its IC50 is 500 to 1000 nM.

Q: For `Cc1cc(C(C)Nc2ccccc2C(=O)O)c2oc(N3CC4CC(C4)C3)cc(=O)c2c1` (stereo not drawn) [Example 177, 2-[1-[2-(3-Azabicyclo[3.1.1]heptan-3-yl)-6-methyl-4-oxo-chromen-8-yl]ethylamino]benzoic acid 2,2,2-trifluoroacetic acid], which IC50 is on record?
A: Its IC50 is 1000 to 5000 nM.

Q: How did the IC50 turn out when `Cc1cc(C(C)Nc2ccccc2C(=O)O)c2oc(N3CC(C(C)(F)F)C3)cc(=O)c2c1` (stereo not drawn) [Example 189, 2-[1-[2-[3-(1,1-Difluoroethyl)azetidin-l-yl]-6-methyl-4-oxo-chromen-8-yl]ethylamino]benzoic acid 2,2,2-trifluoroacetic acid] was run?
A: The IC50 was 1000 to 5000 nM.

Q: Which IC50 does the source give for `Cc1cc(C(C)Nc2ccccc2C(=O)O)c2oc(N3CCc4ccccc4C3)cc(=O)c2c1` (stereo not drawn) [Example 233, 2-[1-[2-(3,4-Dihydro-1H-isoquinolin-2-yl)-6-methyl-4-oxo-chromen-8-yl]ethylamino]benzoic acid] here?
A: Its IC50 is 1000 to 5000 nM.

Q: `Cc1cc(C(C)Nc2sc(Cl)nc2C(=O)O)c2oc(N3Cc4ccccc4C3)cc(=O)c2c1` (stereo not drawn) [Example 245, 2-Chloro-5-[1-(2-isoindolin-2-yl-6-methyl-4-oxo-chromen-8-yl)ethylamino]thiazole-4-carboxylic acid 2,2,2-trifluoroacetic acid] was tested. Which IC50 did it give?
A: Its IC50 is 500 to 1000 nM.

Q: With `Cc1cc([C@@H](C)Nc2ccccc2C(=O)O)c2oc(N3CCC(C#N)(c4ccccc4)CC3)c(C)c(=O)c2c1` [Example 288, 2-[[(1R)-1-[2-(4-Cyano-4-phenyl-1-piperidyl)-3,6-dimethyl-4-oxo-chromen-8-yl]ethyl]amino]benzoic acid] as the molecule, how does the IC50 read?
A: Its IC50 is 500 to 1000 nM.

Q: Which IC50 does the source give for `Cc1cc([C@@H](C)Nc2ccccc2C(=O)O)c2oc(N3CC4(CCC4(F)F)C3)c(C)c(=O)c2c1` [Example 289, 2-[[(1R)-1-[2-(7,7-Difluoro-2-azaspiro[3.3]heptan-2-yl)-3,6-dimethyl-4-oxo-chromen-8-yl]ethyl]amino]benzoic acid] here?
A: Its IC50 is 500 to 1000 nM.

Q: `Cc1cc(C(C)Nc2ccc(Cl)nc2C(=O)O)c2oc(N3Cc4ccc(F)cc4C3)cc(=O)c2c1` (stereo not drawn) [Example 297, 6-Chloro-3-[1-[2-(5-fluoroisoindolin-2-yl)-6-methyl-4-oxo-chromen-8-yl]ethylamino]pyridine-2-carboxylic acid] was tested. Which IC50 did it give?
A: The IC50 was 1000 to 5000 nM.

Q: For `Cc1cc(C(C)Nc2ccc(Cl)nc2C(=O)O)c2oc(N3Cc4ccc5c(c4C3)OCO5)cc(=O)c2c1` (stereo not drawn) [Example 299, 6-Chloro-3-[1-[2-(6,8-dihydro-[1,3]dioxolo[4,5-e]isoindol-7-yl)-6-methyl-4-oxo-chromen-8-yl]ethylamino]pyridine-2-carboxylic acid], which IC50 is on record?
A: The IC50 was 500 to 1000 nM.

Q: With `Cc1cc(C(C)Nc2ccc(Cl)nc2C(=O)O)c2oc(N3CCC4(CC3)CC4)c(C)c(=O)c2c1` (stereo not drawn) [Example 302, 3-[1-[2-(6-Azaspiro[2.5]octan-6-yl)-3,6-dimethyl-4-oxo-chromen-8-yl]ethylamino]-6-chloro-pyridine-2-carboxylic acid] as the molecule, how does the IC50 read?
A: Its IC50 is 500 to 1000 nM.

Q: With `CC(Nc1ccccc1C(=O)O)c1cc(C(F)(F)F)cc2c(=O)cc(N3CCC(F)(F)CC3)oc12` (stereo not drawn) [Example 396, 2-[1-[2-(4,4-Difluoro-1-piperidyl)-4-oxo-6-(trifluoromethyl)chromen-8-yl]ethylamino]benzoic acid 2,2,2-trifluoroacetic acid] as the molecule, how does the IC50 read?
A: The IC50 was 1000 to 5000 nM.

Q: How did the IC50 turn out when `CC(Nc1ccccc1C(=O)O)c1cc(F)cc2c(=O)cc(N3CCC4(CC3)CC4)oc12` (stereo not drawn) [Example 398, 2-[1-[2-(6-Azaspiro[2.5]octan-6-yl)-6-fluoro-4-oxo-chromen-8-yl]ethylamino]benzoic acid 2,2,2-trifluoroacetic acid] was run?
A: The IC50 was 1000 to 5000 nM.

Q: For `CC(Nc1ccccc1C(=O)O)c1cc(F)cc2c(=O)cc(N3CCC(F)(F)CC3)oc12` (stereo not drawn) [Example 399], which IC50 is on record?
A: Its IC50 is 1000 to 5000 nM.
